{
  "source": "patent US10471028B2",
  "about": "“Small molecule efflux pump inhibitors” (UNIVERSITY OF ROCHESTER, priority 2014, dated 2019)",
  "key": {"[1]": {"test_system": "mammalian calcium channel", "test": "Mammalian calcium channel assay (Fluo-4)", "assay_type": "cell-based, human", "conditions": "HEK 293T, carbachol treatment alone", "text": "Many laboratory bacterial efflux inhibitor tool compounds cannot be used in the clinical setting because they limit mammalian ion channel activity. […] Thus, we measured the effects of ABEPI1 and ABEPI2 on mammalian calcium channel functions using Fluo-4 Direct Calcium Channel Assay kits (Life Technologies, Carlsbad, Calif.), in which the dye Fluo-4 was used to measure changes in mammalian cytoplasmic Ca^2+ levels in response to the calcium channel stimulator, carbachol, in the absence and presence of test compound. […] Next, 2× Fluo-4 dye supplemented with Probenecid (5 mM) was added to each well and allowed to equilibrate for 1 hr at 37° C. To determine whether ABEPI1 or ABEPI2 affect Ca^2+ channel activity, Fluo-4 fluorescence measures (excitation 495nm; emission 516nm) were then taken every second for 15 sec."}, "[2]": {"test_system": "A. baumannii strain 98-37-09", "test": "MEC determination: potentiation of minocycline toward serum grown A. baumannii", "assay_type": "cell-based, Acinetobacter baumannii", "conditions": "for Log-reduction Colony Forming Units (ml^−1): 1×MEC of compound plus minocycline in serum, versus minocycline alone, plating; for MEC: lowest concentration inhibiting growth in 100% human serum with 0.5 μg ml^−1 minocycline, 48 hr"}, "[3]": {"test_system": "A. baumannii strain 98-37-09", "test": "Cellular accumulation of minocycline (HPLC, triple-quadrupole MS)", "assay_type": "cell-based, Acinetobacter baumannii", "conditions": "human serum with 0.5 μg mL^−1 minocycline plus test compound (0.5×MEC, 1×MEC), 48 hours"}, "[4]": {"test_system": "human HepG2 cells", "test": "MTT cell viability (cytotoxicity) assay", "method": "To distinguish putatively non-toxic from human cytotoxic compounds, conventional 3-(4,5-dimethylthiazol-2yl)-2,5-diphenyltetrazolium bromide (MTT) cell viability assays (American Type Culture Collection, Manassas, Va.) were performed for each compound of interest at 1× and 4× their MEC. Briefly, human HepG2 cells were grown to approximately 1×10^6 cells per well in Dulbecco's Modified Eagle Media supplemented with 10% fetal bovine serum (Invitrogen, Carlsbad, Calif.) then treated with 1× or 4× the MEC of the indicated […] Cell viability was measured following the addition of the tetrazolium salt (MTT) as per the manufacturer's recommendations; cells challenged with 50 ug ml^−1 Mitomycin C (Sigma Aldrich) and mock-treated cells served as positive and negative controls, respectively."}, "[5]": {"test_system": "A. baumannii strain 98-37-09", "test": "Potentiation of ciprofloxacin toward serum grown A. baumannii", "assay_type": "cell-based, Acinetobacter baumannii", "conditions": "for Potentiate Ciprofloxacin A. baumannii (value in parentheses: log reduction of viability): 1×MEC with ciprofloxacin versus ciprofloxacin alone, plating; for Potentiate Ciprofloxacin A. baumannii: 100% human serum, 0.125 μg ml^−1 ciprofloxacin, 1× or 2× MEC, 48 hour, growth inhibition", "text": "As a means to further prioritize non-toxic compounds of interest based on their therapeutic promise, it was considered that broad spectrum antimicrobial efflux pump inhibitors may be more clinically valuable than narrow-spectrum agents that only potentiate the activity of a limited number of antibiotics or that display activity toward a single bacterial species. […] To do so, 1×10^5 A. baumannii strain 98-37-09 were inoculated into individual wells of microtiter plates containing 100% human serum supplemented with 0.125 μg ml^−1 ciprofloxacin and 0, 1×, or 2× the compound's MEC, as defined by the lowest concentration needed to potentiated minocycline's antimicrobial effects (above). Plates were incubated for 48 hour at which point each compound's ability to potentiate ciprofloxacin was measured, as growth inhibition."}, "[6]": {"test_system": "P. aeruginosa PA01", "test": "Potentiation of ciprofloxacin toward serum grown P. aeruginosa", "assay_type": "cell-based, Pseudomonas aeruginosa", "conditions": "PA01 in 100% human serum, 1×MEC, ciprofloxacin 0 to 2 μg ml^−1", "method": "To do so, PA01 was inoculated into individuals wells of a microtiter plate containing 100% human serum supplemented with 1×MEC of test compound and increasing concentrations of ciprofloxacin (0 to 2 μg ml^−1) and cell viability was measured."}, "[7]": {"test_system": "A. baumannii strain 98-37-09", "test": "Ethidium bromide efflux assay", "assay_type": "cell-based, Acinetobacter baumannii", "conditions": "for ethidium bromide fluorescent signal in comparison to mock treated cells: 10 μg ml^−1 ethidium bromide, 90 min; for cellular ethidium fluorescence compared with PAβN: time course after treatment", "method": "To distinguish whether the antimicrobial potentiation of ABEPI1 and ABEPI2 correlates with the inhibition of A. baumannii's efflux properties, conventional ethidium bromide efflux assays were performed in the presence and absence of each compound. The assay is predicated upon the fluorescent properties of ethidium bromide during intercalation into cellular nucleic acids, whereby efflux active cells display limited intracellular ethidium bromide accumulation and, consequently, low fluorescence. Conversely, efflux inhibition leads to increased cellular ethidium bromide levels and correspondingly high fluorescence relative to efflux proficient cells. Bacterial ethidium bromide efflux activity assays were used to measure the efflux inhibitory properties of compounds of interest. For assays, an overnight culture of A. baumannii strain 98-37-09 was diluted (1:100) into 100% human serum or fresh LB and grown to mid-exponential phase. Cell pellets were collected via centrifugation 900×g for 20 minutes, washed 3× with 20 mM sodium phosphate buffer and resuspended to an OD600nm=0.2 in sodium phosphate buffer. Approximately 1×10^6 CFU were loaded into individual wells of 96-well white-bottom plates, mixed with 10 μg ml^−1 ethidium bromide, and ethidium fluorescence (excitation 530nm; emission 600nm) was measured every 5 min for 90 min on a Spectramax5 fluorimeter (Molecular Devices, Sunnyvale, Calif.). To determine if the putative efflux pump inhibitors affected ethidium bromide efflux, cells were treated with the indicated amount of compound of interest or the efflux pump inhibitor, PaβN, two minutes after fluorescence monitoring began."}, "[8]": {"test_system": "A. baumannii", "test": "Antibiotic susceptibility assay in LB medium or 100% human serum", "assay_type": "cell-based, Acinetobacter baumannii", "method": "The antibiotic susceptibility of A. baumannii and Pseudomonas aeruginosa grown in either LB medium or 100% human serum was measured according to the method described below. Briefly, the indicated bacterial species/strain was grown overnight in LB medium, diluted into fresh medium (1:100 dilution) and grown to mid-exponential phase (OD600nm=0.4 to 0.5) at 37° C. with aeration. […] To quantify the antimicrobial effects of each antibiotic toward bacteria grown in LB or serum, well constitutes were serially diluted in PBS and plated on LB agar to enumerate the CFU mL^−1."}},
  "note": "Read-outs that look alike come from different tables or passages of the source.",
  "data": [
    {"compound": "C[N+](C)(C)CCOC(N)=O", "note": "[Carbachol, carbamylocholine chloride]", "values": [
      {"measurement": "increase in cytoplasmic Ca^2+ levels", "setting": "[1]", "value": "approximately 2.3 fold"}
    ]},
    {"compound": "NS(=O)(=O)c1ccc(/N=C/c2ccc(Cl)cc2)cc1", "note": "[ST009675]", "values": [
      {"measurement": "Log-reduction Colony Forming Units (ml^−1)", "setting": "[2]", "value": 6.73, "unit": "log"},
      {"measurement": "MEC", "setting": "[2]", "value": 2, "unit": "µg/mL"},
      {"measurement": "Minocylcine Per Cell (femtomoles cell^−1)", "setting": "[3]", "value": "5.88E−04", "unit": "femtomoles cell^−1"},
      {"measurement": "% Viability", "setting": "[4]; human, 48 h, 4 ×MEC", "value": 96.6, "unit": "%"},
      {"measurement": "Potentiate Ciprofloxacin A. baumannii (value in parentheses: log reduction of viability)", "setting": "[5]", "value": "(2.28) log"},
      {"measurement": "Potentiate Ciprofloxacin A. baumannii", "setting": "[5]", "value": "Yes"},
      {"measurement": "Potentiate Ciprofloxacin P. aeruginosa", "setting": "[6]", "value": "Yes"},
      {"measurement": "Potentiate Ciprofloxacin P. aeruginosa", "setting": "[6]; listed as ABEPI1", "value": "potentiated the activity of ciprofloxacin"},
      {"measurement": "ethidium bromide fluorescent signal in comparison to mock treated cells", "setting": "[7]", "value": "significantly increased signal"},
      {"measurement": "cellular ethidium fluorescence compared with PAβN", "setting": "[7]", "value": "levels exceeding that of PABN within the first 20 min of treatment"}
    ]},
    {"compound": "COC(=O)c1ccccc1NC(=O)CN1C(=O)c2ccccc2S1(=O)=O", "note": "[ST058165]", "values": [
      {"measurement": "Log-reduction Colony Forming Units (ml^−1)", "setting": "[2]", "value": 6.27, "unit": "log"},
      {"measurement": "MEC", "setting": "[2]", "value": 32, "unit": "µg/mL"},
      {"measurement": "Minocylcine Per Cell (femtomoles cell^−1)", "setting": "[3]", "value": "1.11E−04", "unit": "femtomoles cell^−1"},
      {"measurement": "% Viability", "setting": "[4]", "value": 76.9, "unit": "%"},
      {"measurement": "Potentiate Ciprofloxacin A. baumannii (value in parentheses: log reduction of viability)", "setting": "[5]", "value": "(1.53) log"},
      {"measurement": "Potentiate Ciprofloxacin A. baumannii", "setting": "[5]", "value": "Yes"},
      {"measurement": "Potentiate Ciprofloxacin P. aeruginosa", "setting": "[6]", "value": "No"}
    ]},
    {"compound": "COC(=O)c1ccc(COc2ccc(-c3nnn[nH]3)cc2)cc1", "note": "[ST060272]", "values": [
      {"measurement": "Log-reduction Colony Forming Units (ml^−1)", "setting": "[2]", "value": 6.90, "unit": "log"},
      {"measurement": "MEC", "setting": "[2]", "value": 32, "unit": "µg/mL"},
      {"measurement": "Minocylcine Per Cell (femtomoles cell^−1)", "setting": "[3]", "value": "3.67E−07", "unit": "femtomoles cell^−1"},
      {"measurement": "% Viability", "setting": "[4]", "value": 85.35, "unit": "%"},
      {"measurement": "Potentiate Ciprofloxacin A. baumannii", "setting": "[5]", "value": "No"}
    ]},
    {"compound": "CC(C)(C)NC(=O)CSc1nnnn1C(C)(C)C", "note": "[ST060273]", "values": [
      {"measurement": "Log-reduction Colony Forming Units (ml^−1)", "setting": "[2]", "value": 6.53, "unit": "log"},
      {"measurement": "MEC", "setting": "[2]", "value": 32, "unit": "µg/mL"},
      {"measurement": "Minocylcine Per Cell (femtomoles cell^−1)", "setting": "[3]", "value": "6.84E−06", "unit": "femtomoles cell^−1"},
      {"measurement": "% Viability", "setting": "[4]; human, 48 h, 4 ×MEC", "value": 90.1, "unit": "%"},
      {"measurement": "Potentiate Ciprofloxacin A. baumannii (value in parentheses: log reduction of viability)", "setting": "[5]", "value": "(4.36) log"},
      {"measurement": "Potentiate Ciprofloxacin A. baumannii", "setting": "[5]", "value": "Yes"},
      {"measurement": "Potentiate Ciprofloxacin P. aeruginosa", "setting": "[6]", "value": "Yes"},
      {"measurement": "ethidium bromide fluorescent signal in comparison to mock treated cells", "setting": "[7]", "value": "significantly increased signal"},
      {"measurement": "cellular ethidium fluorescence compared with PAβN", "setting": "[7]", "value": "essentially identical to those of PAβN until approximately 35 min post-treatment"}
    ]},
    {"compound": "O=C(O)c1cn(C2CC2)c2cc(N3CCNCC3)c(F)cc2c1=O", "note": "[ciprofloxacin]", "values": [
      {"measurement": "susceptibility of serum grown versus LB grown cells", "setting": "[8]; strain 98-37-09, ciprofloxacin ≤1 μg ml^−1", "value": "significantly (P<0.001) less susceptible"}
    ]},
    {"compound": "COC(=O)[C@H]1[C@H]2C[C@@H]3c4[nH]c5cc(OC)ccc5c4CCN3C[C@H]2C[C@@H](OC(=O)c2cc(OC)c(OC)c(OC)c2)[C@@H]1OC", "note": "[reserpine]", "values": [
      {"measurement": "restoration of tigecycline susceptibility in serum", "setting": "[8]; strain 01-12-05, addition of efflux pump inhibitor", "value": "partially restored"},
      {"measurement": "restoration of ciprofloxacin susceptibility in serum", "setting": "[8]; strain 98-37-09, serum supplemented with efflux pump inhibitor", "value": "Ciprofloxacin susceptibility could be restored"}
    ]},
    {"compound": "CN(C)[C@@H]1C(O)=C(C(N)=O)C(=O)[C@@]2(O)C(O)=C3C(=O)c4c(O)cccc4[C@@](C)(O)[C@H]3C[C@@H]12", "note": "[tetracycline]", "values": [
      {"measurement": "cell viability, LB grown", "setting": "[8]; 4-16 μg ml^−1 tetracycline, LB", "value": "< 1×10^1 colony forming units"}
    ]},
    {"compound": "CN(C)c1cc(NC(=O)CNC(C)(C)C)c(O)c2c1C[C@H]1C[C@H]3[C@H](N(C)C)C(O)=C(C(N)=O)C(=O)[C@@]3(O)C(O)=C1C2=O", "note": "[tigecycline]", "values": [
      {"measurement": "concentration with clear antimicrobial activity", "setting": "[8]; strain 01-12-05, LB medium", "value": "≥ 1", "unit": "µg/mL"},
      {"measurement": "susceptibility during growth in serum", "setting": "[8]; strain 01-12-05, human serum", "value": "highly-resistant"}
    ]},
    {"compound": "phenylalanine arginine beta naphthylamide [PAβN, reference compound]", "values": [
      {"measurement": "ethidium bromide fluorescent signal in comparison to mock treated cells", "setting": "[7]", "value": "significantly increased cellular ethidium bromide accumulation"},
      {"measurement": "restoration of tetracycline susceptibility in serum", "setting": "[8]; serum grown, efflux pump inhibitor present", "value": "partially restored"}
    ]}
  ]
}
